From patent US20250304537A1 (Repare Therapeutics Inc., priority 2022, published 2025)
Read-outs that look alike come from different tables or passages of the source.

Experiments:
[1] = molecular target: recombinant human Myt1 (full length PKMYT1) (Homo sapiens (Human), UniProt Q99640); assay: Recombinant human Myt1 kinase assay (ADP-Glo); format: biochemical; conditions: 10 μM ATP
In short: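 Full-length insect-cell-expressed human Myt1 (18 nM final) was preincubated with compound (0.5% DMSO) for 15 min at 22 °C. The reaction ran with 10 μM ATP for 60 min at 30 °C in HEPES buffer with Mg2+/Mn2+ and DTT. ADP formed was read by ADP-Glo luminescence, giving IC50 and % max inhibition.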

[2] = test system: PKMYT1 (CDK1 pThr14) in FUOV1 cells; assay: PKMYT1 cell-based activity assay, CDK1 pThr14 AlphaLISA in FUOV1 cells; conditions: read-out: FUOV-1 CDK1 pThr14 IC50
In short: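 FUOV1 cells were treated with PKMYT1 inhibitor for 2 h at 37 °C, then lysed. CDK1 pThr14 was measured by AlphaLISA, pairing an anti-pThr14 antibody with an anti-total CDK1 antibody (5 nM each). Signal read at 680/615 nm and used to derive IC50.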

recombinant human Myt1 (full length PKMYT1), sequence (Q99640 whole entry): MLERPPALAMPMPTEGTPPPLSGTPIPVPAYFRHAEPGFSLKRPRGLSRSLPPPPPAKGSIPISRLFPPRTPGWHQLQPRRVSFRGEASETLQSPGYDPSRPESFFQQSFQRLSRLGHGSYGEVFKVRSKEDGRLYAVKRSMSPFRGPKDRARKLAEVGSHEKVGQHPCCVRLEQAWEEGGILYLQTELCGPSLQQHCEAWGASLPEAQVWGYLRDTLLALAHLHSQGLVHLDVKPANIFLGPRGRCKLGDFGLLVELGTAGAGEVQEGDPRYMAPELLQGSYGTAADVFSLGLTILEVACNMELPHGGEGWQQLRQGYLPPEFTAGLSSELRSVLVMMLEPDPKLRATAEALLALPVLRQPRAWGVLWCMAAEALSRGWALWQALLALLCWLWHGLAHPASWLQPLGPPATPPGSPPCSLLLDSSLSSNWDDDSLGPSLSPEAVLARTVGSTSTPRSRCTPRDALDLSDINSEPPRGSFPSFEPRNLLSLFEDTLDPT

Row | SMILES | IC50 [1] [nM] | also measured
1 | Cc1ccc2[nH]ncc2c1-c1nc(-c2ccccc2NC(=O)C2(C#N)CC2)nc(C(N)=O)c1N [Compound 423] | 4 | IC50 ([2]; 2 h, 2 h compound incubation): 23 nM
2 | Cc1ccc2[nH]ncc2c1-c1cc(-c2cccc(OCc3ccccn3)n2)nc(C(N)=O)c1N [Compound 228] | 6 | IC50 ([2]; 2 h, 2 h incubation): 387 nM
3 | Cc1ccc2[nH]ncc2c1-c1nc(-c2cc(F)cnc2N[C@H]2CC[C@](O)(C(F)(F)F)CC2)nc(C(N)=O)c1N [Compound 835] | 11 | IC50 ([2]; 2 h, 2 hours with compound): 86 nM
4 | Cc1ccc(O)cc1-c1nc(-c2cccc(Cl)c2)nc(C(N)=O)c1N [Compound 29] | 25 | IC50 ([2]; 2 h, 2 h incubation): 1220 nM
5 | Cc1ccc(O)c(C)c1-c1cc(-c2cccc(=O)[nH]2)nc(C(N)=O)c1N [Compound 72] | 10 | IC50 ([2]; 2 h, 2 h incubation): 77 nM
6 | COc1cccnc1Nc1cc(F)ccc1-c1nc(C(N)=O)c(N)c(-c2c(C)ccc3[nH]ncc23)n1 [Compound 614] | 10 | IC50 ([2]; 2 h, 2 h compound incubation): 37 nM
7 | Cc1ccc2[nH]ncc2c1-c1cc(-c2ccnc(OC[C@H](N)c3ccccc3)n2)nc(C(N)=O)c1N [Compound 342] | 3 | IC50 ([2]; 2 h, 2 h incubation): 6 nM
8 | Cc1ccc2[nH]ncc2c1-c1nc(-c2ccccc2NC(=O)OC(C)(C)C)nc(C(N)=O)c1N [Compound 474] | 16 | IC50 ([2]; 2 h, 2 h compound incubation): 398 nM
9 | Cc1ccc2[nH]ncc2c1-c1cc(-c2cnccn2)nc(C(N)=O)c1N [Compound 190] | 20 | IC50 ([2]; 2 h, 2 h incubation): 860 nM
10 | NC(=O)c1nc(-c2ccccc2)nc(-c2cccc3[nH]ncc23)c1N [Compound 68] | 50 | IC50 ([2]; 2 h, 2 h incubation): > 10000 nM
11 | Cc1ccc(O)c(C)c1-c1cc(-c2cccc(OC3CCOCC3)n2)nc(C(N)=O)c1N [Compound 94] | 2 | IC50 ([2]; 2 h incubation): 31 nM
12 | Cc1ccc(O)c(C)c1-c1cc(-c2cccc(C(N)=O)c2)nc(C(N)=O)c1N [Compound 51] | 8 | IC50 ([2]; 2 h, 2 h incubation): 357 nM
13 | Cc1ccc(O)cc1-c1nc(-c2ccc(N3CCN(CCO)CC3)cc2)nc(C(N)=O)c1N [Compound 6] | 24 | IC50 ([2]; 2 h, 2 h incubation): 1010 nM
14 | Cc1ccc(O)c(C)c1-c1cc(-c2ccccn2)cc(C(N)=O)c1N [Compound 80] | 8 | IC50 ([2]; 2 h, 2 h incubation): 259 nM
15 | Cc1ccc2[nH]ncc2c1-c1nc(-c2cccnc2Nc2cccc(C(F)(F)F)c2)nc(C(N)=O)c1N [Compound 608] | 29 | IC50 ([2]; 2 h, 2 h compound incubation): 1390 nM
16 | Cc1ccc(O)c(C)c1-c1cc(-c2nc3ccccc3s2)nc(C(N)=O)c1N [Compound 55] | 15 | IC50 ([2]; 2 h incubation): 146 nM
17 | Cc1ccc(O)cc1-c1nc(-c2nccs2)nc(C(N)=O)c1N [Compound 3, 5-amino-6-(5-hydroxy-2-methylphenyl)-2-(thiazol-2-yl)pyrimidine-4-carboxamide] | 21 | IC50 ([2]; 2 h, 2 h incubation): 560 nM
18 | NC(=O)c1nc(-c2ccccc2NC(=O)C2(C(F)(F)F)CC2)nc(-c2c(Cl)ccc3[nH]ncc23)c1N [Compound 411] | 7 | IC50 ([2]; 2 h, 2 h compound incubation): 60 nM
19 | Cc1ccc(O)c(C)c1-c1cc(-c2ccns2)cc(C(N)=O)c1N [Compound 92] | 5 | IC50 ([2]; 2 h, 2 h incubation): 131 nM
20 | Cc1cccc(Nc2ncccc2-c2nc(C(N)=O)c(N)c(-c3c(C)ccc4[nH]ncc34)n2)n1 [Compound 626] | 5 | IC50 ([2]; 2 h, 2 h compound incubation): 530 nM
21 | Cc1ccc2[nH]ncc2c1-c1nc(-c2cc(F)c(F)cc2NC2CCN(C)CC2)nc(C(N)=O)c1N [Compound 485] | 7 | IC50 ([2]; 2 h, 2 h compound incubation): 53 nM

Row | SMILES | IC50 [1] [nM] | also measured
22 | Cc1cc(-c2nc(C(N)=O)c(N)c(-c3c(C)ccc4[nH]ncc34)n2)ccc1C#N [Compound 151] | 27 | 
23 | CCOC(=O)COc1cccc(-c2nc(C(N)=O)c(N)c(-c3c(C)ccc4[nH]ncc34)n2)c1 [Compound 293] | 16 | 
24 | CC(=O)c1ccc(-c2nc(C(N)=O)c(N)c(-c3c(C)ccc4[nH]ncc34)n2)cc1 [Compound 128] | 57 | 
25 | Cc1ccc2[nH]ncc2c1-c1cc(-c2ccnc(N[C@H]3c4ccccc4C[C@H]3O)n2)nc(C(N)=O)c1N (atropisomer, axis not shown) [Compound 376] | 15 | 
26 | Cc1ccc2[nH]ncc2c1-c1cc(-c2ccnc(N3CCCC(CO)C3)n2)nc(C(N)=O)c1N (centres unmarked) [Compound 346] | 13 | 
27 | Cc1ccc2n[nH]cc2c1-c1cc(-c2cccc(=O)[nH]2)nc(C(N)=O)c1N [Compound 243] | 73 | 
28 | Cc1ccc2[nH]ncc2c1-c1cc(-c2ccnc(N3CC[C@@H](O)C3)n2)nc(C(N)=O)c1N [Compound 347] | 18 | 
29 | Cc1ccc2[nH]ncc2c1-c1cc(-c2ccnc(NCC3(O)CC3)n2)nc(C(N)=O)c1N [Compound 341] | 16 | 
30 | CNc1cccc(-c2nc(C(N)=O)c(N)c(-c3c(C)ccc4[nH]ncc34)n2)c1 [Compound 140] | 48 | 
31 | CCC(COc1cccc(-c2cc(-c3c(C)ccc4[nH]ncc34)cc(C(N)=O)n2)n1)OC (centres unmarked) [Compound 498] | 93 | 
32 | CSC(C)COc1cccc(-c2cc(-c3c(C)ccc4[nH]ncc34)c(N)c(C(N)=O)n2)n1 (centres unmarked) [Compound 375] | 14 | 
33 | Cc1ccc(O)cc1-c1nc(C2CCC(F)(F)CC2)nc(C(N)=O)c1N [Compound 41, 5-amino-2-(4,4-difluorocyclohexyl)-6-(5-hydroxy-2-methylphenyl)pyrimidine-4-carboxamide] | 827 | 
34 | Cc1ccc2[nH]ncc2c1-c1cc(-c2cccc(Oc3ccccn3)n2)nc(C(N)=O)c1N [Compound 202] | 107 | 
35 | CCC(C)COc1cccc(-c2cc(-c3c(C)ccc4[nH]ncc34)c(N)c(C(N)=O)n2)n1 (centres unmarked) [Compound 361] | 35 | 
36 | Cc1ccc2[nH]ncc2c1-c1cc(-c2cccc(N[C@@H](CO)c3ccccc3)n2)nc(C(N)=O)c1N [Compound 275] | 141 | 
37 | Cc1ccc2[nH]ncc2c1-c1cc(-c2cccc(OCCN3CCN(C)CC3)n2)nc(C(N)=O)c1N [Compound 307] | 25 | 
38 | Cc1ccc2[nH]ncc2c1-c1cc(-c2ccnc(NCCCO)n2)nc(C(N)=O)c1N [Compound 343] | 20 | 
39 | Cc1ccnc(-c2cc(-c3c(C)ccc4[nH]ncc34)c(N)c(C(N)=O)n2)c1 [Compound 269] | 18 | 
40 | CCC(CC)COc1cccc(-c2cc(-c3c(C)ccc4[nH]ncc34)c(N)c(C(N)=O)n2)n1 [Compound 350] | 35 | 
41 | Cc1ccc2[nH]ncc2c1-c1cc(-c2csc(C3(O)COC3)n2)nc(C(N)=O)c1N [Compound 223] | 61 | 
42 | Cc1ccc2[nH]ncc2c1-c1nc(-c2ccc(CN3CCOCC3)s2)nc(C(N)=O)c1N [Compound 156] | 17 | 

Row | SMILES | IC50 [1] [nM] | also measured
43 | CO[C@@H](COc1nccc(-c2cc(-c3c(C)ccc4[nH]ncc34)c(N)c(C(N)=O)n2)n1)c1ccccc1 (atropisomer, axis not shown) [Compound 308] | 1740 | 
44 | Cc1ccc2[nH]ncc2c1-c1cc(-c2ccnc(OCCc3ncccn3)n2)nc(C(N)=O)c1N (atropisomer, axis not shown) [Compound 330] | 88 | 
45 | COCCOc1cccc(-c2cc(-c3c(C)ccc4[nH]ncc34)c(N)c(C(N)=O)n2)n1 (atropisomer, axis not shown) [Compound 270] | 1160 | 
46 | Cc1ccc2[nH]ncc2c1-c1cc(-c2cncs2)nc(C(N)=O)c1N [Compound 98] | 1940 | 
47 | Cc1ccc2[nH]ncc2c1-c1nc(-c2cccc(CC#N)c2)nc(C(N)=O)c1N [Compound 281] | 8 | 
48 | Cc1ccc2[nH]ncc2c1-c1nc(-c2cccc(C(=O)N(C)C)c2)nc(C(N)=O)c1N [Compound 284] | 38 | 
49 | Cc1ccc2[nH]ncc2c1-c1cc(-c2ccccn2)cc(C(N)=O)c1N [Compound 137, 2-amino-3-(5-methyl-1H-indazol-4-yl)-5-(pyridin-2-yl)benzamide] | 46 | 
50 | Cc1ccc2[nH]ncc2c1-c1nc(-c2ccnc(C(F)(F)F)c2)nc(C(N)=O)c1N [Compound 153] | 27 | 
51 | Cc1ccc2[nH]ncc2c1-c1cc(-c2cccc(N3CCSCC3)n2)nc(C(N)=O)c1N [Compound 187] | 78 | 
52 | Cc1ccc2[nH]ncc2c1-c1cc(-c2ccc(=O)[nH]c2)nc(C(N)=O)c1N [Compound 178] | 68 | 
53 | Cc1ccc2[nH]ncc2c1-c1nc(-c2ccc(N3CCOCC3)cc2)nc(C(N)=O)c1N [Compound 103] | 94 | 
54 | Cc1ccc2[nH]ncc2c1-c1nc(-c2ccc(N3CCOCC3)c(C(F)(F)F)c2)nc(C(N)=O)c1N [Compound 157] | 904 | 
55 | Cc1ccc(-c2nc(C(N)=O)c(N)c(-c3cc(O)ccc3C)n2)cc1 [Compound 20] | 105 | 
56 | COCCOc1ccc(-c2nc(C(N)=O)c(N)c(-c3c(C)ccc4[nH]ncc34)n2)cc1 [Compound 124] | 25 | 
57 | Cc1ccc(O)cc1-c1c(Cl)c(C(N)=O)nc2ccccc12 [Compound 73, 3-chloro-4-(5-hydroxy-2-methylphenyl)quinoline-2-carboxamide] | > 50 | 
58 | Cc1ccc2[nH]ncc2c1-c1nc(-c2ccnc(N3CCOCC3)c2)nc(C(N)=O)c1N [Compound 155] | 15 | 
59 | Cc1ccc2[nH]ncc2c1-c1cc(-c2cccc(OCCN3CCCC3)n2)nc(C(N)=O)c1N (atropisomer, axis not shown) [Compound 271] | 1090 | 
60 | COc1cnc(COc2cccc(-c3cc(-c4c(C)ccc5[nH]ncc45)c(N)c(C(N)=O)n3)n2)nc1 [Compound 255] | 72 | 
61 | CNC(=O)c1cccc(-c2nc(C(N)=O)c(N)c(-c3c(C)ccc4[nH]ncc34)n2)c1 [Compound 285] | 20 | 
62 | Cc1ccc2[nH]ncc2c1-c1cc(-c2cc[nH]c(=O)c2)nc(C(N)=O)c1N [Compound 237] | 48 | 
